Test results from PMC7397274, “Triazolopyridopyrimidine: A New Scaffold for Dual-Target Small Molecules for Alzheimer’s Disease Therapy” (Molecules, 2020).
Values joined by “and” are separate entries in the source; they are usually repeats but may differ in a detail not shown here. Equal entries are not always repeated. Where two headings read alike, the source gives them in different places.

Experiments:
[1] = target: T1, EeAChE (Electrophorus electricus, UniProt O42275); experiment: biochemical; assay type: biochemical; conditions: for inhibition at 10 µM: 10 μM compound; for inhibition at 10 µM / IC50: Ellman method; for IC50: mean ± SEM; for fold less active than tacrine (EeAChE IC50): relative to tacrine IC50 = 0.03 μM
T1 construct: purchased Sigma Aldrich
T1 sequence (O42275 24-633): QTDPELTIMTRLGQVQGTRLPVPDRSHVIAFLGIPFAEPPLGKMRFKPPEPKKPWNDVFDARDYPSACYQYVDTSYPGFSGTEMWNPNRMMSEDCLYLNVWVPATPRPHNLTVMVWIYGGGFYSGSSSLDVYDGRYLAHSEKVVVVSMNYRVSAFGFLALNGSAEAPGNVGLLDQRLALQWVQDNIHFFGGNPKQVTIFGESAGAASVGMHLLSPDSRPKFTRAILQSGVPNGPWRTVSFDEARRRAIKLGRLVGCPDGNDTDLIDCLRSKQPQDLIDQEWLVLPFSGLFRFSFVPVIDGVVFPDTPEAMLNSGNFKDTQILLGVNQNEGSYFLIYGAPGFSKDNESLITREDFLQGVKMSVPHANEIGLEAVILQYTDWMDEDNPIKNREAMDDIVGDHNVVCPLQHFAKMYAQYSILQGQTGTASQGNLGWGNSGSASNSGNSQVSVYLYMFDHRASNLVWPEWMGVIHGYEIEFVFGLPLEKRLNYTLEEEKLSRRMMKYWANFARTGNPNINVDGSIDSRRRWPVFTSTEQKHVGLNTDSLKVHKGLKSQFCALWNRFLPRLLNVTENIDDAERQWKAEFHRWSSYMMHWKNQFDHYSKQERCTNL
Description: The effect of the test compounds on the activity of both EeAChE and eqBuChE was evaluated following the spectrophotometric method of Ellman. The reaction occurred in a final volume of 3 mL of a 0.1 M phosphate-buffered solution at pH = 8.0, containing 5,5′-dithiobis-2-nitrobenzoic acid (DTNB, 2625 µL, 0.35 mM, final concentration), EeAChE (29 µL, 0.035 U/mL, final concentration) or eqBuChE (60 µL, 0.05 U/mL, final concentration), tested compound (3 µL, […]), and 1% w/v bovine albumin serum phosphate-buffered (pH = 8) solution (BSA, 60 µL). After this pre-incubation period, acetylthiocholine iodide (105 µL, 0.35 mM, final concentration) or butyrylthiocholine iodide (150 µL, 0.5 mM, final concentration) was added, allowing 15 min of additional incubation time.

[2] = ORAC-FL; for ORAC (TE): fluorescein probe, Trolox standard, mean (n = 3) ± SEM; for antioxidant activity (ORAC) in words: qualitative statement or comparison with positive controls

| SMILES | inhibition at 10 µM [1] [%] | ORAC (TE) [2] | IC50 [1] | fold less active than tacrine (EeAChE IC50) [1] [fold] | antioxidant activity (ORAC) in words [2] | ORAC (TE) ([2]; listed as ferulic acid) |
| --- | --- | --- | --- | --- | --- | --- |
| N#Cc1c(-c2ccccc2)c2c(N)ncnc2n2nc(-c3ccccc3)nc12 [Compound 3a, 6-Amino-2,5-diphenyl-[1,2,4]triazolo[1′,5′:1,6]pyrido[2,3-d] pyrimidine-4-carbonitrile] | 40.3 ± 2.4 | 1.85 ± 0.1 TE |  |  |  |  |
| Cc1ccc(-c2c(C#N)c3nc(-c4ccccc4)nn3c3ncnc(N)c23)cc1 [Compound 3b, 6-Amino-2-phenyl-5-(p-tolyl)-[1,2,4]triazolo[1′,5′:1,6]pyrido[2,3-d] pyrimidine-4-carbonitrile] | 73.13 ± 0.1 | 1.77 TE and 1.77 ± 0.1 TE | 1.17 µM | 39 |  |  |
| COc1ccc(-c2c(C#N)c3nc(-c4ccccc4)nn3c3ncnc(N)c23)cc1 [Compound 3c, 6-Amino-5-(4-methoxyphenyl)-2-phenyl-[1,2,4]triazolo[1′,5′:1,6]pyrido[2,3-d] pyrimidine-4-carbonitrile] | 63.9 ± 1.8 | 4.01 TE and 4.01 ± 0.1 TE | 1.3 µM and 1.32 µM | 44 |  |  |
| COc1cccc(-c2c(C#N)c3nc(-c4ccccc4)nn3c3ncnc(N)c23)c1 [Compound 3d, 6-Amino-5-(3-methoxyphenyl)-2-phenyl-[1,2,4]triazolo[1′,5′:1,6]pyrido[2,3-d] pyrimidine-4-carbonitrile] | 31.2 ± 2.1 | 4.33 ± 0.1 TE |  |  |  |  |
| COc1ccccc1-c1c(C#N)c2nc(-c3ccccc3)nn2c2ncnc(N)c12 [Compound 3e, 6-Amino-5-(2-methoxyphenyl)-2-phenyl-[1,2,4]triazolo[1′,5′:1,6]pyrido[2,3-d] pyrimidine-4-carbonitrile] | 32.3 ± 2.4 | 3.79 ± 0.1 TE |  |  |  |  |
| N#Cc1c(-c2ccc(Cl)cc2)c2c(N)ncnc2n2nc(-c3ccccc3)nc12 [Compound 3f, 6-Amino-5-(4-chlorophenyl)-2-phenyl-[1,2,4]triazolo[1′,5′:1,6]pyrido[2,3-d] pyrimidine-4-carbonitrile] | 43.9 ± 1.2 | 1.81 ± 0.1 TE |  |  |  |  |
| N#Cc1c(-c2ccc(O)cc2)c2c(N)ncnc2n2nc(-c3ccccc3)nc12 [Compound 3g, 6-Amino-5-(4-hydroxyphenyl)-2-phenyl-[1,2,4]triazolo[1′,5′:1,6]pyrido[2,3-d] pyrimidine-4-carbonitrile] | 36.4 ± 0.6 | 7.17 TE and 7.17 ± 0.2 TE |  |  | most potent antioxidant |  |
| N#Cc1c(-c2ccc([N+](=O)[O-])cc2)c2c(N)ncnc2n2nc(-c3ccccc3)nc12 [Compound 3h, 6-Amino-5-(4-nitrophenyl)-2-phenyl-[1,2,4]triazolo[1′,5′:1,6]pyrido[2,3-d] pyrimidine-4-carbonitrile] | 44.6 ± 1.6 | 3.54 ± 0.1 TE |  |  | moderate antioxidants |  |
| CC(C)c1ccc(-c2c(C#N)c3nc(-c4ccccc4)nn3c3ncnc(N)c23)cc1 [Compound 3i, 6-Amino-5-(4-isopropylphenyl)-2-phenyl-[1,2,4]triazolo[1′,5′:1,6]pyrido[2,3-d] pyrimidine-4-carbonitrile] | 18.2 ± 1 | 1.89 ± 0.1 TE |  |  |  |  |
| N#Cc1c(-c2ccc(Br)cc2)c2c(N)ncnc2n2nc(-c3ccccc3)nc12 [Compound 3j, 6-Amino-5-(4-bromophenyl)-2-phenyl-[1,2,4]triazolo[1′,5′:1,6]pyrido[2,3-d] pyrimidine-4-carbonitrile] | 38.1 ± 1.1 | 2.57 ± 0.0 TE |  |  |  |  |
| N#Cc1c(-c2ccc(Oc3ccccc3)cc2)c2c(N)ncnc2n2nc(-c3ccccc3)nc12 [Compound 3k, 6-Amino-5-(4-phenoxyphenyl)-2-phenyl-[1,2,4]triazolo[1′,5′:1,6]pyrido[2,3-d] pyrimidine-4-carbonitrile] | 18.6 ± 1.8 | 2.99 ± 0.2 TE |  |  | weaker antioxidant activity |  |
| COc1cc(/C=C/C(=O)O)ccc1O [Ferulic acid, reference compound] |  | 3.74 ± 0.2 TE |  |  |  | 3.7 |
